The structures appear in SMILES notation. A value given as a limit tells only on which side of the number the result lay.

Results on 31 compounds are retold here after patent US9145392B2, “Imidazole amines as modulators of kinase activity” (Merck Patent GmbH, priority 2011, dated 2015).

One assay concerns the target P70S6K (T412E mutant) (Homo sapiens (Human), UniProt P23443, T412E). Nature of the assay: P70S6K enzyme assay. Type of assay: biochemical. The following applies: read-out: IC50 p70S6K. An outline of the steps:
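Phosphorylated product and substrate peptide separated by microfluidic capillary electrophoresis (Caliper LabChip 3000), product peaks resolving before substrate.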

The target in another assay is His-AKT (Full Length) (Homo sapiens (Human), UniProt P31749). Nature of the assay: AKT enzyme assay. Format: biochemical. To be noted: read-out: IC50 AKT.
His-AKT (Full Length), sequence (P31749 whole entry): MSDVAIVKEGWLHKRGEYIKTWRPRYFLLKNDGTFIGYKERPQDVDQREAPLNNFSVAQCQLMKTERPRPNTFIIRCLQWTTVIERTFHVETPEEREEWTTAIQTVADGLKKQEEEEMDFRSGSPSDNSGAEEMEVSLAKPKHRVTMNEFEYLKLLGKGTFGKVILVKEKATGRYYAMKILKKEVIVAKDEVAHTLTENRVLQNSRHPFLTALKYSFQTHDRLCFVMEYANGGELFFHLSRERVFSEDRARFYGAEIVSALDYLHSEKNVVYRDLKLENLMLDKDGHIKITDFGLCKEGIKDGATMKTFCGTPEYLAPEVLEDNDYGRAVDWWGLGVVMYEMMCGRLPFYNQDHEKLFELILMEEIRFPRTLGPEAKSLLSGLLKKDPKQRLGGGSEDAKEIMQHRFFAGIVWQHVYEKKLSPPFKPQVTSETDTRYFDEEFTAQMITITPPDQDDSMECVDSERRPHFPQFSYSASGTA

P70S6K (T412E mutant), sequence (P23443 whole entry T412E): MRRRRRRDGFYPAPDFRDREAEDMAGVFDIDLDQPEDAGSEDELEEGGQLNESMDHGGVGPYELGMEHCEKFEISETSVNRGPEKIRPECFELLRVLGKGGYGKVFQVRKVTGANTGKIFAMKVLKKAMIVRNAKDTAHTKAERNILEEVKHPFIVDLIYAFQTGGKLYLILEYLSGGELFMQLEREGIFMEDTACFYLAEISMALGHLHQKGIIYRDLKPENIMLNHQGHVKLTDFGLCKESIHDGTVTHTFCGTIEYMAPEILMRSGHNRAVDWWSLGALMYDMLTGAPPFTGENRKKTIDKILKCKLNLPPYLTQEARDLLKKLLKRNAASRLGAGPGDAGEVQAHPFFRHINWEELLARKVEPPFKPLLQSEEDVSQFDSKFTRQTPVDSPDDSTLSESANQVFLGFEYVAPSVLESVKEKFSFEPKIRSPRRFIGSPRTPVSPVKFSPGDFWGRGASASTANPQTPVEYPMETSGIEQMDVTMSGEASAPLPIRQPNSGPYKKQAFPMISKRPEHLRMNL

As to `COC/C=C/c1c(N)ncnc1N1CCC(c2nc(-c3ccc(F)c(C(F)(F)F)c3)cn2C)CC1` [Compound 54, 6-{4-[4-(4-Fluoro-3-trifluoromethyl-phenyl)-1-methyl-1H-imidazol-2-yl]-piperidin-1-yl}-5-((E)-3-methoxy-propenyl)-pyrimidin-4-ylamine], the IC50 on P70S6K (T412E mutant) worked out at 2.5 nM; at His-AKT (Full Length), 740 nM.

In the case of `N#Cc1c(N)ncnc1N1CCC(c2nc(-c3ccsc3)cn2CCN2CCC2)CC1` [Compound 130, 4-amino-6-(4-(1-(2-(azetidin-1-yl)ethyl)-4-(thiophen-3-yl)-1H-imidazol-2-yl)piperidin-1-yl)pyrimidine-5-carbonitrile], the IC50 on P70S6K (T412E mutant) was determined as 2.6 nM; at His-AKT (Full Length), 91 nM.

As for `N#Cc1c(N)ncnc1N1CCC(c2nc(-c3ccnc(F)c3)cn2CCN2CCC2)CC1` [Compound 206, 4-Amino-6-{4-[1-(2-azetidin-1-yl-ethyl)-4-(2-fluoro-pyridin-4-yl)-1H-imidazol-2-yl]-piperidin-1-yl}-pyrimidine-5-carbonitrile], the IC50 on P70S6K (T412E mutant) turned out to be 2.4 nM; at His-AKT (Full Length), 13 nM.

Take `CCc1c(N)ncnc1N1CCC(c2nc(-c3ccc(C(F)(F)F)c(F)c3)cn2CCN2CCC(F)CC2)CC1` [Compound 249]: the IC50 on P70S6K (T412E mutant) worked out at 10 nM; on His-AKT (Full Length) it was 86 nM.

As for `CN(C)CCN(C)CCn1cc(-c2ccc(F)c(C(F)(F)F)c2)nc1C1CCN(c2ncnc(N)c2C#N)CC1` [Compound 362, 4-Amino-6-{4-[1-{2-[(2-dimethylamino-ethyl)-methyl-amino]-ethyl}-4-(4-fluoro-3-trifluoromethyl-phenyl)-1H-imidazol-2-yl]-piperidin-1-yl}-pyrimidine-5-carbonitrile], the IC50 at P70S6K (T412E mutant) is 4.1 nM; on His-AKT (Full Length), 76 nM.

In the case of `Cc1ccc(-c2c(N)ncnc2N2CCC(c3nc(-c4ccc(F)c(C(F)(F)F)c4)cn3C)CC2)cn1` [Compound 19, 6-{4-[4-(4-Fluoro-3-trifluoromethyl-phenyl)-1-methyl-1H-imidazol-2-yl]-piperidin-1-yl}-5-(6-methyl-pyridin-3-yl)-pyrimidin-4-ylamine], the IC50 was determined as 2.2 nM at P70S6K (T412E mutant) and 1700 nM on His-AKT (Full Length).

On to `Nc1ncnc(N2CCC(c3nc(-c4ccc(F)c(F)c4)cn3CCN3CCCC3)CC2)c1Cl` [Compound 238], for which the IC50 at P70S6K (T412E mutant) was found to be 0.9 nM; at His-AKT (Full Length), 3.2 nM.

Take `NC(=O)c1c(N)ncnc1N1CCC(c2nc(-c3ccccc3)cn2CCN2CCC2)CC1` [Compound 136, 4-amino-6-(4-(1-(2-(azetidin-1-yl)ethyl)-4-phenyl-1H-imidazol-2-yl)piperidin-1-yl)pyrimidine-5-carboxamide]: the IC50 was found to be 8.4 nM at P70S6K (T412E mutant) and 1900 nM at His-AKT (Full Length).

With `CCc1c(N)ncnc1N1CCC(c2nc(-c3ccc(F)c(C(F)(F)F)c3)cn2C[C@@H]2CCN2)CC1` [Compound 152, (S)-6-(4-(1-(azetidin-2-ylmethyl)-4-(4-fluoro-3-(trifluoromethyl)phenyl)-1H-imidazol-2-yl)piperidin-1-yl)-5-ethylpyrimidin-4-amine], the results for the IC50 on P70S6K (T412E mutant) and at His-AKT (Full Length) were 5.2 nM and 280 nM, respectively.

Consider `NC(=O)c1c(N)ncnc1N1CCC(c2nc(-c3ccc(F)c(C(F)(F)F)c3)cn2CC2CCCN2)CC1` (centres unmarked) [Compound 153, 4-amino-6-(4-(4-(4-fluoro-3-(trifluoromethyl)phenyl)-1-(pyrrolidin-2-ylmethyl)-1H-imidazol-2-yl)piperidin-1-yl)pyrimidine-5-carboxamide], for which the IC50 at P70S6K (T412E mutant) stood at 10 nM; on His-AKT (Full Length) it was 220 nM.

In the case of `NC(=O)c1c(N)ncnc1N1CCC(c2nc(-c3ccc(F)c(C(F)(F)F)c3)cn2CCO)CC1` [Compound 395, 4-Amino-6-{4-[4-(4-fluoro-3-trifluoromethyl-phenyl)-1-(2-hydroxy-ethyl)-1H-imidazol-2-yl]-piperidin-1-yl}-pyrimidine-5-carboxylic acid amide], the values for the IC50 on P70S6K (T412E mutant) and on His-AKT (Full Length) were 1.6 nM and 180 nM, respectively.

For the compound `CNc1ncnc(N2CCC(c3nc(-c4ccnc(C(F)(F)F)c4)cn3CCN3CCC3)CC2)c1Cl` [Compound 192, 6-(4-(1-(2-(azetidin-1-yl)ethyl)-4-(2-(trifluoromethyl)pyridin-4-yl)-1H-imidazol-2-yl)piperidin-1-yl)-5-chloro-N-methylpyrimidin-4-amine], the IC50 on P70S6K (T412E mutant) came to 2700 nM; at His-AKT (Full Length), 7200 nM.

With `Nc1ncnc(N2CCC(c3nc(-c4ccc(F)c(C(F)(F)F)c4)cn3CCN3CCCCC3)CC2)c1-c1ccccc1F` [Compound 63], the half-inhibitory concentration (IC50) on P70S6K (T412E mutant) came out at 5.1 nM; on His-AKT (Full Length), 130 nM.

As to `Nc1cc(N2CCC(c3nc(-c4ccc(C(F)(F)F)cc4)cn3CCN3CCCC3)CC2)ncn1` [Compound 270], the IC50 on P70S6K (T412E mutant) was 360 nM; on His-AKT (Full Length) it was 1000 nM.

As for `Nc1ncnc(N2CCC(c3nc(-c4ccc(Cl)c(F)c4)cn3CCN3CCCC3)CC2)c1Br` [Compound 266], the IC50 on P70S6K (T412E mutant) turned out to be 3.3 nM; on His-AKT (Full Length), 16 nM.

Turning to `Cn1cc(-c2ccc(F)c(C(F)(F)F)c2)nc1C1CCN(c2ncnc(N)c2C(N)=O)CC1` [Compound 37, 4-Amino-6-{4-[4-(4-fluoro-3-trifluoromethyl-phenyl)-1-methyl-1H-imidazol-2-yl]-piperidin-1-yl}-pyrimidine-5-carboxamide], the IC50 was determined as 2.6 nM on P70S6K (T412E mutant) and 1600 nM on His-AKT (Full Length).

`C=Cc1c(N)ncnc1N1CCC(c2nc(-c3ccnc(C(C)C)c3)cn2CCN2CCC2)CC1` [Compound 182, 6-(4-(1-(2-(azetidin-1-yl)ethyl)-4-(2-isopropylpyridin-4-yl)-1H-imidazol-2-yl)piperidin-1-yl)-5-vinylpyrimidin-4-amine]: the IC50 amounted to 0.7 nM at P70S6K (T412E mutant) and 2.2 nM at His-AKT (Full Length).

As for `N#Cc1c(N)ncnc1N1CCC(c2nc(-c3ccnc(C4CC4)c3)cn2CCN2CCC2)CC1` [Compound 319], the IC50 at P70S6K (T412E mutant) amounted to 1.7 nM; at His-AKT (Full Length), 23 nM.

For the compound `CC(C)NCCn1cc(-c2ccc(F)c(C(F)(F)F)c2)nc1C1CCN(c2ncnc(N)c2C#N)CC1` [Compound 369, 4-Amino-6-{4-[4-(4-fluoro-3-trifluoromethyl-phenyl)-1-(2-isopropylamino-ethyl)-1H-imidazol-2-yl]-piperidin-1-yl}-pyrimidine-5-carbonitrile], the IC50 is 3.6 nM on P70S6K (T412E mutant) and 5.4 nM at His-AKT (Full Length).

For the compound `CCc1c(N)ncnc1N1CCC(c2nc(-c3ccc(F)c(C)c3)cn2CCN(CC)CC)CC1` [Compound 296], the IC50 at P70S6K (T412E mutant) was 1.6 nM; on His-AKT (Full Length), 2.6 nM.

Regarding `NC(=O)c1c(N)ncnc1N1CCC(c2nc(-c3cnoc3)cn2CCN2CCC2)CC1` [Compound 135, 4-amino-6-(4-(1-(2-(azetidin-1-yl)ethyl)-4-(isoxazol-4-yl)-1H-imidazol-2-yl)piperidin-1-yl)pyrimidine-5-carboxamide], the IC50 on P70S6K (T412E mutant) stood at 860 nM; at His-AKT (Full Length), 760 nM.

As for `Nc1ncnc(N2CCC(c3nc(-c4ccc(F)c(C(F)(F)F)c4)c[nH]3)CC2)c1-c1ccc(F)cc1` [Compound 44, 5-(4-Fluoro-phenyl)-6-{4-[4-(4-fluoro-3-trifluoromethyl-phenyl)-1H-imidazol-2-yl]-piperidin-1-yl}-pyrimidin-4-ylamine], the figures for the IC50 at P70S6K (T412E mutant) and on His-AKT (Full Length) were 2.4 nM and 9500 nM, respectively.

Regarding `Cn1cc(-c2ccc(F)c(C(F)(F)F)c2)nc1C1CCN(c2ncnc(N)c2C#N)CC1` [Compound 7, 4-Amino-6-{4-[4-(4-fluoro-3-trifluoromethyl-phenyl)-1-methyl-1H-imidazol-2-yl]-piperidin-1-yl}-pyrimidine-5-carbonitrile], the IC50 came out at 1.5 nM at P70S6K (T412E mutant) and 110 nM at His-AKT (Full Length).

With `Nc1ncnc(N2CCC(c3nc(-c4ccc(F)c(C(F)(F)F)c4)cn3CCN3CCC3)CC2)c1-c1ccc(C(=O)O)cc1` [Compound 224], the IC50 was 5.7 nM on P70S6K (T412E mutant) and 12 nM at His-AKT (Full Length).

Consider `N#Cc1c(N)ncnc1N1CCC(c2nc(-c3ccc(F)c(C(F)(F)F)c3)cn2CCNCC2CC2)CC1` [Compound 358, 4-Amino-6-{4-[1-[2-(cyclopropylmethyl-amino)-ethyl]-4-(4-fluoro-3-trifluoromethyl-phenyl)-1H-imidazol-2-yl]-piperidin-1-yl}-pyrimidine-5-carbonitrile], for which the values for the IC50 at P70S6K (T412E mutant) and on His-AKT (Full Length) were 1.1 nM and 1.6 nM, respectively.

As for `N#Cc1c(N)ncnc1N1CCC(c2nc(-c3cccc(S(N)(=O)=O)c3)cn2CCN2CCC2)CC1` [Compound 354, 3-[2-[1-(6-Amino-5-cyano-pyrimidin-4-yl)-piperidin-4-yl]-1-(2-azetidin-1-yl-ethyl)-1H-imidazol-4-yl]-benzenesulfonamide], the IC50 on P70S6K (T412E mutant) and on His-AKT (Full Length) was over 10000 nM throughout.

Consider `CCNCCn1cc(-c2ccc(F)c(C(F)(F)F)c2)nc1C1CCN(c2ncnc(N)c2OC(C)C)CC1` [Compound 174, 6-(4-(1-(2-(ethylamino)ethyl)-4-(4-fluoro-3-(trifluoromethyl)phenyl)-1H-imidazol-2-yl)piperidin-1-yl)-5-isopropoxypyrimidin-4-amine], for which the IC50 on P70S6K (T412E mutant) worked out at 0.44 nM; on His-AKT (Full Length), 0.52 nM.

In the case of `Cc1c(N)ncnc1N1CCC(c2nc(-c3ccc(F)c(C(F)(F)F)c3)cn2CCN2CCCC2)CC1` [Compound 215], the IC50 was determined as 6.1 nM on P70S6K (T412E mutant) and 10 nM on His-AKT (Full Length).

Turning to `N#Cc1c(N)ncnc1N1CCC(c2nc(-c3ccc(F)c(C(F)(F)F)c3)cn2CCN2CCCCC2)CC1` [Compound 312], the IC50 at P70S6K (T412E mutant) stood at 1.9 nM; at His-AKT (Full Length), 2.3 nM.

`Cc1cc(-c2cn(CC3CNC3)c(C3CCN(c4ncnc(N)c4OCC(F)(F)F)CC3)n2)ccc1F` [Compound 186, 6-(4-(1-(azetidin-3-ylmethyl)-4-(4-fluoro-3-methylphenyl)-1H-imidazol-2-yl)piperidin-1-yl)-5-(2,2,2-trifluoroethoxy)pyrimidin-4-amine]: the IC50 at P70S6K (T412E mutant) is 2 nM; on His-AKT (Full Length), 7.1 nM.

`CCc1c(N)ncnc1N1CCC(c2nc(-c3ccc(OC)c(C(N)=O)c3)cn2CCN2CCC2)CC1` [Compound 107, 5-(2-(1-(6-amino-5-ethylpyrimidin-4-yl)piperidin-4-yl)-1-(2-(azetidin-1-yl)ethyl)-1H-imidazol-4-yl)-2-methoxybenzamide]: the IC50 on P70S6K (T412E mutant) is 98 nM; on His-AKT (Full Length), 160 nM.
